Experimental data reported in ChEMBL document CHEMBL5143654, “Synthesis and biological evaluation of marine natural product, Cryptoechinuline D derivatives as novel antiangiogenic agents” (Bioorg Med Chem Lett, 2022).
Activity calls are given as the source filed them. No cut-off for these calls is given here.

How the values were obtained:
HUVEC [1] = assay: Cytotoxicity against HUVEC cells assessed as cell viability at 50 uM measured after 24 hrs by MTT assay; format: functional; details: Homo sapiens, read-out: Activity
HUVEC [2] = assay: Cytotoxicity against HUVEC cells assessed as inhibition of cell viability measured after 24 hrs by MTT assay; format: functional, cell-based; details: Homo sapiens
HUVEC [3] = assay: Anti-angiogenesis activity against HUVEC cells assessed as decrease in Ang2 level at 5 to 10 uM measured after 24 hrs by Western blot analysis; format: functional, cell-based; details: Homo sapiens, dose 5-10 µM
HUVEC [4] = assay: Anti-angiogenesis activity against HUVEC cells assessed as inhibition of vertical migration at 5 to 10 uM measured after 24 hrs by Transwell assay; format: functional, cell-based; details: Homo sapiens, dose 5-10 µM
HUVEC [5] = assay: Anti-angiogenesis activity against HUVEC cells assessed as inhibition of horizontal migration at 5 to 10 uM measured after 8 hrs by wound healing assay; format: functional, cell-based; details: Homo sapiens, dose 5-10 µM
HUVEC [6] = assay: Anti-angiogenesis activity against HUVEC cells assessed as inhibition of cell migration at 5 to 10 uM measured after 24 hrs by Matrigel invasion assay; format: functional, cell-based; details: Homo sapiens, dose 5-10 µM
HUVEC [7] = assay: Antiproliferative activity against HUVEC assessed as decrease in number Edu-positive cells at 5 to 10 uM after 24 hrs by fluorescence microscopic analysis; format: functional, cell-based; details: Homo sapiens, dose 5-10 µM
HUVEC [8] = assay: Anti-angiogenesis activity against HUVEC cells assessed as decrease in Tie2 phosphorylation at Tyr1102/1100 level at 5 to 10 uM measured after 24 hrs by Western blot analysis; format: functional, cell-based; details: Homo sapiens, dose 5-10 µM

Compound | viability at 50 µM (HUVEC [1]) [%] | also measured
C=CC(C)(C)c1[nH]c2ccccc2c1/C=C1\NC(=O)[C@@]2(C[C@@H](C)C=C[C@H]2/C=C/c2c(OC(C)=O)cc(CC=C(C)C)c(O)c2CO)NC1=O (racemic) | 40.4 | –
C=CC(C)(C)c1[nH]c2ccccc2c1/C=C1\NC(=O)[C@@]2(C[C@@H](C)C=C[C@H]2/C=C/c2c(OC)cc(CC=C(C)C)c(O)c2C=O)NC1=O (racemic) | 31.1 | –
C=CC(C)(C)c1[nH]c2ccccc2c1/C=C1\NC(=O)[C@@]2(C[C@@H](C)C=C[C@H]2/C=C/c2c(OC)cc(CC=C(C)C)c(O)c2CN2CCCC2)NC1=O (racemic) | 81.6 | –
C=CC(C)(C)c1[nH]c2ccccc2c1/C=C1\NC(=O)[C@@]2(C[C@@H](C)C=C[C@H]2/C=C/c2c(OC(C)=O)cc(CC=C(C)C)c(OC(C)=O)c2C=O)NC1=O (racemic) | 5.33 | IC50 (HUVEC [2]): 12.6 µM; inhibition (HUVEC [2]; DDE = dose-dependent effect): Dde; inhibition (HUVEC [3]): Active; inhibition (HUVEC [4]): Active; inhibition (HUVEC [5]): Active; inhibition (HUVEC [6]): Active; inhibition (HUVEC [7]): Active; inhibition (HUVEC [8]): Active
C=CC(C)(C)c1[nH]c2ccccc2c1/C=C1\NC(=O)[C@@]2(C[C@@H](C)C=C[C@H]2/C=C/c2c(OC(C)=O)cc(CC=C(C)C)c(O)c2C=O)NC1=O (racemic) | 33.7 | –
C=CC(C)(C)c1[nH]c2ccccc2c1/C=C1\NC(=O)[C@@]2(C[C@@H](C)C=C[C@H]2/C=C/c2c(OC(C)=O)cc(CC=C(C)C)c(OC(C)=O)c2COC(C)=O)NC1=O (racemic) | 83.2 | –
C=CC(C)(C)c1[nH]c2ccccc2c1/C=C1\NC(=O)[C@@]2(C[C@@H](C)C=C[C@H]2/C=C/c2c(OC(C)=O)cc(CC=C(C)C)c(O)c2C#N)NC1=O (racemic) | 71.8 | –
C=CC(C)(C)c1[nH]c2ccccc2c1/C=C1\NC(=O)[C@@]2(C[C@@H](C)C=C[C@H]2/C=C/c2c(OC(C)=O)cc(CC=C(C)C)c(O)c2CN(CC)CC)NC1=O (racemic) | 94.3 | –
C=CC(C)(C)c1[nH]c2ccccc2c1/C=C1\NC(=O)[C@@]2(C[C@@H](C)C=C[C@H]2/C=C/c2c(O)cc(CC=C(C)C)c(OC)c2C=O)NC1=O (racemic) | 78.7 | –
C=CC(C)(C)c1[nH]c2ccccc2c1/C=C1\NC(=O)[C@@]2(C[C@@H](C)C=C[C@H]2/C=C/c2c(OC(C)=O)cc(CC=C(C)C)c(OC(C)=O)c2/C=N\O)NC1=O (racemic) | 94.4 | –
C=CC(C)(C)c1[nH]c2ccccc2c1/C=C1\NC(=O)[C@@]2(C[C@@H](C)C=C[C@H]2/C=C/c2c(OC(C)=O)cc(CC=C(C)C)c(O)c2/C=N\O)NC1=O (racemic) | 93 | –
C=CC(C)(C)c1[nH]c2ccccc2c1/C=C1\NC(=O)[C@@]2(C[C@@H](C)C=C[C@H]2/C=C/c2c(OC)cc(CC=C(C)C)c(OC)c2C=O)NC1=O (racemic) | 87.5 | –
C=CC(C)(C)c1[nH]c2ccccc2c1/C=C1\NC(=O)[C@@]2(C[C@@H](C)C=C[C@H]2/C=C/c2c(O)cc(CC=C(C)C)c(O)c2C=O)NC1=O (racemic) | 82.1 | –
